From patent US8153599B1, “Compounds with the biological activity of vasoactive intestinal peptide for the treatment of pulmonary and arteriolar hypertension” (Mondobiotech AG, priority 2000, dated 2012)
Where two headings read alike, the source gives them in different places. No end group written: not given here.

Tests used:
[1] = tested on: isolated VSMC prepared from pulmonary arteries; test: Binding of 99 mTc-VIP to isolated VSMC prepared from pulmonary arteries; parameters: species or system human; conditions: for Kd: read-out: binding affinity Kd
Excerpt: FIG. 4: Binding of 99 mTc-VIP to isolated VSMC prepared from pulmonary arteries of PPH patients (4b) and control patients (4a).
(§1) While VIP-R mRNA accumulation is easily detectable PPH, only low levels of VIP-R mRNA accumulation can be detected in healthy controls (FIG. 3). Analogously an increased receptor binding activity for VIP is seen in primary cultures of pulmonary artery vascular smooth muscle cells (PaVSMC) prepared from pulmonary resistance vessels of PPH patients compared to healthy subjects (FIGS. 4a and 4b). […] Pharmacologically, nitric oxide induces vasodilatation by lowering the intracellular free calcium concentration of PaVSMC.

[2] = Acute testing of inhaled peptide in PPH patient, right heart catheterisation (pulmonary hemodynamics and gas exchange); type: in vivo, human; conditions: for mean pulmonary artery pressure (mPAP) after inhalation: 100 μg inhaled for 15 minutes, measured 15 minutes after, baseline 63 (VIP) / 65 (PACAP) mmHg; for PVR after inhalation / SvO2 after inhalation / PaO2 after inhalation: 100 μg inhaled; for PVR after inhalation: baseline 12 (VIP) / 13 (PACAP) woods; for SvO2 after inhalation: baseline 61% (VIP) / 59% (PACAP); for PaO2 after inhalation: baseline 91%
Procedure: A patient with severe PPH was under therapy with diltiazem, furosemid and an anticoagulant. Right heart catheterisation (Swan-Ganz, Baxter, Irvine, Calif., USA) was performed to measure mean pulmonary artery pressure (mpap), cardiac output (CO), mean arterial pressure (MAP), pulmonary capillary wedge pressure (PCWP) mixed venous oxygen saturation (SvO2%) and systemic arterial oxygen pressure (PaO2%). VIP (100 μg in 3 ml NaCl 0.9%) was inhaled for 15 minutes via the MicroDrop Master Jet (MPV, Truma, Germany) using a particle size of 3 μm to provide alveolar deposition of the substance. Alternatively VIP was injected i.v. 20 (ng/kg.b.w./min) via portable pump system (CADD-1, Pharmacia-Upjohn, Vienna, Austria). Pulmonary homodynamic and gas exchange were measured before and 15 minutes after inhalation or i.v. injection of VIP. Right heart catheterisation was performed in the intensive care unit. The patient was monitored on-line electrocardiographically, invasive blood pressure and systemic arterial oxygen saturation (SaO2%) (Hewlett Packard, Böblingen, Germany) were measured. All hemodynamic and oxygen measurements were performed with a cardiac output computer (Explorer, Baxter) and a pressure monitoring kit (Baxter, Irvine, Calif., USA). Calculations were made according to the standard equations in a […] by taking blood from the radial and pulmonary artery (Automatic blood gas system, AVL-995-Hb, Austria). At baseline (before inhalation of VIP), mPAP was 63 mmHg, CI 3.6 l·min^−1, PVR 12 woods, PCWP 9 mmHg, PaO2 91% and SvO2 61%. Addition of 100 μg inhaled VIP improved pulmonary hemodynamic parameters; mPAP decreased to 49 mmHg and PVR to 9 woods. PaO2 to 93% and SvO2 to 63% compared to baseline.
A patient with severe PPH was under therapy with diltiazem, furosemid and an anticoagulant. Right heart catheterisation (Swan-Ganz, Baxter, Irvine, Calif., USA) was performed to measure mean pulmonary artery pressure (mpap), cardiac output (CO), mean arterial pressure (mAP), pulmonary capillary wedge pressure (PCWP) mixed venous oxygen saturation (SvO2%) and systemic arterial oxygen pressure (PaO2%). PACAP (100 μg in 3 ml NaCl 0.9%) was inhaled for 15 minutes via the MicroDrop Master Jet (MPV, Truma, Germany) using a particle size of 3 μm to provide alveolar deposition of the substance. Pulmonary hemodynamics and gas exchange were measured before and 15 minutes after inhalation of PACAP. Right heart catheterisation was performed in the intensive care unit. The patient was monitored on-line electrocardiographically, invasive blood pressure and systemic arterial oxygen saturation (SaO2%) (Hewlett Packard, Böblingen, Germany) were measured. All hemodynamic and oxygen measurements were performed with a cardiac output computer (Explorer, Baxter) and a pressure monitoring kit (Baxter, Irvine, Calif., USA). Calculations were made according to the standard equations in a patient data management system (CareVue 9000, Hewlett Packard, Böblingen, Germany). Blood gas analysis was performed by taking blood from the radial and pulmonary artery (Automatic blood gas system, AVL-995-Hb, Austria). At baseline (before inhalation of PACAP), mPAP was 65 mmHg, CI 3.2 l·min^−1, PVR 13 woods, PCWP 10 mmHg, PaO2 91% and SvO2 59%. Addition of 100 μg inhaled PACAP improved pulmonary hemodynamic parameters; mpap decreased to 45 mmHg and PVR to 8 woods. PaO2 increased to 93% and SvO2 to 62% compared to baseline.

[3] = Inhaled VIP in COPD patient with secondary pulmonary hypertension (SPH); type: in vivo, human
Procedure: A patient suffering from Chronic Obstructive Pulmonary Disease (COPD) with secondary pulmonary hypertension (SPH) (mPAP 32 mmHg) was tested for their response to inhaled VIP (200 μg in 3 ml NaCl 0.9%) The inhalation of VIP led to a decrease of mPAP from 32 mmHg to 25 mmHg. This effect was paralleled by increase of cardiac output from 4.1 l·min^−1 to 4.8 l·min^−1.

[4] = i.v. VIP in patient with severe essential arteriolar hypertension, intraarterial blood pressure monitoring; type: in vivo, human; conditions: 20 ng/kg/min i.v.
Procedure: FIG. 7: The effect of VIP on systolic and diastolic blood pressure in a patient with essential hypertension after intravenous injection. The patient received VIP at 20 ng/kg/b.w./min. Blood pressure was measured intraarterially. Y-axis: pressure (mmHg), x-axis: time (min).
A patient with severe essential arteriolar hypertension is under treatment with nifedipine and enalapril. Systolic and diastolic systemic arterial pressure (SAP) were measured by intraarterial monitoring. VIP (20 ng/kg/min) was injected i.v. via a portable pump system (CADD-1, Pharmacia-Upjohn, Vienna, Austria). […] Before injection of VIP, the systolic pressure (SAP) was 165 mmHg and the diastolic (DAP) was 110 mmHg.

[5] = tested on: human pulmonary arterial rings; test: Vasodilatory effect on human pulmonary arterial rings (vascular tone in vitro); type: cell-based; conditions: after increase of tone by 80 mmol K+, increasing concentrations (FIG. 6)
Excerpt: FIG. 6: Vasodilatory effect of VIP on human pulmonary arterial rings. Arteries of patients subjected to thorax surgery were surgically removed and tested in vitro under standardized procedures for their vascular tone.

[6] = tested on: Nitric oxide synthetase (ecnos); test: Nitric oxide synthetase (ecnos) expression in endothelial cells from pulmonary arteries, Western blot; type: cell-based, human; conditions: 10^−7 M, normoxic and hypoxic conditions, 96 hours (FIG. 8)
Procedure: FIG. 8: Nitric oxide synthetase (ecnos) expression in endothelial cells prepared from pulmonary arteries of control subjects after 96 hours of incubation. Cells were incubated with VIP (10^−7 M) under normoxic (−) and hypoxic (+) conditions for various times. Western blots reveal constitutive expression under normoxic conditions without VIP.
as §1

[7] = tested on: VSMC prepared from pulmonary arteries; test: Interleukin1-b induced elevation of intracellular free calcium in VSMC from pulmonary arteries, fura-2 method; type: cell-based, human; conditions: VIP 250 ng/ml and 500 ng/ml (FIG. 9)
Procedure: FIG. 9: The effect of VIP on the interleukin1-b induced elevation of intracellular free calcium concentration in VSMC prepared from pulmonary arteries. Ordinate-Ca2+ (nmol). 1-basal concentration; 2-interleukin1-b; 3-interleukin1-b plus VIP 250 ng/ml and 4-VIP 500 ng/ml intracellular calcium concentration during incubation with VIP; Ca 2+ was determined by fura-2 method.
as §1

[8] = tested on: VSMC from pulmonary arterial vessel; test: Proliferation of VSMC from pulmonary arterial vessel; type: cell-based, human; conditions: 10^−12 M to 10^−9 M (FIG. 10)
Excerpt: FIG. 10: The effect of VIP on the proliferation of VSMC from pulmonary arterial vessel. Ordinate-proliferation as percent of control. 1-without VIP; 2-10^−12M VIP; 3-10^−11M VIP; 4-10^−10M VIP; 5-10^−9M VIP.
as §1

[9] = Acute testing of inhaled peptide in PPH patient, right heart catheterisation (pulmonary hemodynamics and gas exchange); type: in vivo, human; conditions: for time dependence of mPAP decrease: 100 μg inhaled (FIG. 5b)
[10] = target: VIP receptor (VIP-R) on vascular smooth muscle cells prepared from human pulmonary arteries (human); test: radioligand binding of 99mTc-VIP to isolated VSMC from pulmonary arteries of PPH patients (FIG. 4b)
[11] = target: VIP receptor (VIP-R) on vascular smooth muscle cells prepared from human pulmonary arteries (human); test: radioligand binding of 99mTc-VIP to isolated VSMC from pulmonary arteries of control patients (FIG. 4a)
[12] = VSMC of control patients (FIG. 4a)

For 99 mTc-VIP: radiolabeled VIP, the “specific binding Bmax” value ([1]; VSMC of PPH patients (FIG. 4b)) was 0.9 pm per mg protein, the Kd ([1]; VSMC of PPH patients (FIG. 4b)) was 0.0016 nM and the “specific binding Bmax” value [1, 12] was 0.6 pm per mg protein. The Kd [1, 12] was 0.042 nM.

In the case of “His-Ser-Asp-Ala-Val-Phe-Thr-Asp-Asn-Tyr-Thr-Arg-Leu-Arg-Lys-Gln-Met-Ala-Val-Lys-Lys-Tyr-Leu-Asn-Ser-Ile-Leu-Asn (HSDAVFTDNYTRLRKQMAVKKYLNSILN; listed as Homo sapiens) [VIP, 28 amino acid peptide hormone]”, the “mean pulmonary artery pressure (mPAP) after inhalation” value [2] is reported as 49 mmHg, the PVR after inhalation [2] is reported as 9 woods and the SvO2 after inhalation [2] is reported as 63%. For the same molecule, the PaO2 after inhalation [2] was 93%, the mPAP after inhalation ([3]; 200 μg in 3 ml NaCl 0.9% inhaled, from 32 mmHg) was 25 mmHg and the “cardiac output after inhalation” value ([3]; 200 μg inhaled, from 4.1 l·min^−1) was 4.8 L/min. For the same molecule, the “diastolic pressure (DAP) after application” value ([4]; before 110 mmHg) was 90 mmHg, the “systolic pressure (SAP) after application” value ([4]; before 165 mmHg) was 145 mmHg and the vessel tone [5] was “continuous decrease of the vessel tone”. For the same molecule, the ecnos expression [6] was “increased expression of ecnos above constitutional level”, the “intracellular free calcium concentration” value [7] was “decrease of the intracellular free calcium concentration” and the “proliferation of PaVSMC” value [8] was “inhibits the proliferation”. The “time dependence of mPAP decrease” value ([9]; PPH patient) was “Time dependant decrease”, the “dose dependence of mPAP decrease” value ([9]; PPH patient, increased inhaled doses (FIG. 5a)) was “dose-dependently decrease” and the dose of maximum efficacy on mPAP ([9]; PPH patient, inhaled) was 100 µg.

For “His-Ser-Asp-Gly-Ile-Phe-Thr-Asp-Ser-Tyr-Ser-Arg-Tyr-Arg-Lys-Gln-Met-Ala-Val-Lys-Lys-Tyr-Leu-Ala-Ala-Val-Leu-Gly-Lys-Arg-Tyr-Lys-Gln-Arg-Val-Lys-Asn-Lys (HSDGIFTDSRYSRYRKQMAVKKYLAAVLGKRYKQRVNK; listed as Homo sapiens) [PACAP, neuropeptide of 38 amino acid residues]”, the “mean pulmonary artery pressure (mPAP) after inhalation” value [2] was 45 mmHg, the PVR after inhalation [2] was 8 woods and the SvO2 after inhalation [2] was 62%. The PaO2 after inhalation [2] was 93%, the “time dependence of mPAP decrease” value ([9]; PPH patient) was “time-dependently decrease” and the CI ([9]; Table 1, after, mean, before mean 2.7) was 3.2. The PCWP ([9]; Table 1, after, mean, before mean 8.6) was 8.5, the mPAP ([9]; Table 1, after, mean, before mean 57.1) was 44.4 and the SvO2 ([9]; Table 1, after, mean, before mean 60.0) was 62.5. For the same molecule, the PaO2 ([9]; Table 1, after, mean, before mean 66.8) was 69.3, the mAP ([9]; Table 1, after, mean, before mean 84.5) was 81.0 and the PVR ([9]; Table 1, after, mean, before mean 906.4) was 544.1.

B1: 99mTc-labelled vasoactive intestinal peptide (VIP) (peptide)
peptide: HSDAVFTDNYTRLRKQMAVKKYLNSILN
modifications: ends and bridges not checked; also: 99mTc radiolabel, site and chelator not given here
For B1, the Bmax (pm per mg protein) [10] was 0.9, the Kd [10] was 1.6 pM and the Bmax (pm per mg protein) [11] was 0.6.
